Source: patent US20230140798A1, “SYNTHETIC PEPTIDES DIRECTED AGAINST THE METABOTROPIC GLUTAMATE RECEPTOR 5” (Lactocore, Inc., priority 2020, published 2023)

Columns and labels:
Format in all cases: in vivo
[1] = tested on: BALB/C mice; assay: Porsolt Forced Swim test (two-day modification), mice
Protocol: (§1) After an adaptation period, the test substance was intraperitoneally injected into mice. Behavioral parameters were measured in 30 minutes after injection. No more than one test was performed per day. The tests were administered as follows: day 1—the Open field test, day 8—the Elevated plus maze test, days 15-16—the Porsolt Forced Swim (two-day modification) test.
As part of this modification, two tests were carried out within two days. The installation is a transparent cylinder, 30 cm high, 10 cm in diameter and filled with water (water temperature 21° C.-23° C.) to a mark at a height of 25 cm. On the first day, each animal was dropped into the cylinder for 10 minutes. Behavioral parameters were not recorded. The animals are dropped into the cylinder for ten minutes again on the second day. The duration of active (vigorous movements with all paws) and passive (weak strokes with hind legs) swimming, as well as immobility (immobilization) (Porsolt et al. (1977). Behavioral despair in mice: a primary screening test for antidepressants. Arch Int Pharmacodyn Ther, 229(2), 327-336) are recorded. After each test the mice are placed in a heated cage until dry. The behavior indicators in this test are processed using the Real Timer Program developed by NPK “OpenScience” LLC, Russia. The sequence of events and their duration were recorded as well as basic statistical data processing was conducted.

[2] = tested on: zebrafish (Danio rerio); assay: Novel Tank (NT) test
Protocol: (§2) The tested substances were injected into the zebrafish intraperitoneally using an insulin syringe (0.5 ml, 30 g) 10 minutes before the test (15 min before for ketamine only, according to the literature data). The saline solution (0.9% NaCl) was used as a solvent. Anesthesia and immobilization of the animals were achieved by placing them in water at a temperature of 10° C. Control group fish received intraperitoneal injections of an equivalent volume of solvent, also after going through a pre-cooling procedure.
A base, back, and side walls of the aquarium were made of matte black plastic; the front panel (shorter wall) was made of transparent Plexiglas.
(§3) The Novel Tank (NT) test was performed as previously described (Maximino et al. (2013). Behavioral and neurochemical changes in the zebrafish leopard strain. G2B. 12(5): 576-582). A video recording (background shooting) was started 20-30 seconds before the zebrafish were placed in the test aquarium. The experimental zebrafish was placed in the tank using a net. The recording was being conducted for 5 minutes. The test was carried out using EthoVision XT software package (Noldus, Wageningen, Netherlands). The software registered the distance covered by the animal, its speed, the number of visits to the three conventional zones of the aquarium: “bottom,” “center,” and […] (lower, middle, and upper thirds of the aquarium, respectively), the time spent in these zones, and the latency of a visit to the middle and to the surface of the aquarium.

[3] = tested on: zebrafish (Danio rerio); assay: Light/Dark Box (LDB) test
Protocol: as §2
The setup for the Light/Dark preference test consisted of three main parts: a launch compartment, a light compartment made of white plastic, and a dark compartment made of black plastic. The bright lighting in these tests was provided by a lamp on a stand (LED lamp PL, 11 W, light flux≈600 Lm, about 500 Lx directly above the water surface), which was attached to the upper part of the aquarium.
(§4) The light/dark box (LDB) test was performed as previously described (Maximino et al. (2011). Pharmacological analysis of zebrafish (Danio rerio) scototaxis. Prog. Neuro-Psychopharmacol. Biol. Psychiatry. 35(2): 624-631). The zebrafish was placed in a light compartment of an LDB using a net, the camera was switched on simultaneously, and the behavior of the zebrafish was recorded for 5 minutes. The video was processed using RealTimer (OpenScience). During the processing of records, the residence time and the number of visits to the light and dark compartments of the test setup were recorded, as well as the latent period of visiting both compartments.

[4] = tested on: zebrafish (Danio rerio); assay: Overall behavioral effect in zebrafish (NT and LDB tests)
Protocol: as §2, §3, §4

[5] = tested on: BALB/C mice; assay: Open Field test, mice
Text: Eighty male BALB/C mice were used as subjects in this example. Body weight of each specimen at the beginning of the experiment was between about 18 grams and about 20 grams. All animals were free from species-specific pathogens (specific pathogen free (SPF) status according to the Federation of European Laboratory Animal Science Associations (FELASA) list, 2014). The animals were kept in conditions of free access to water and food. The room was air-conditioned (exchange rate not less than 15 r/h) with a 12 h:12 h light-dark cycle (lights on at 09:00 am), air temperature 20-24°±2° C. (possible fluctuations of the limits no more than 2° C. per day), 30-70% humidity. For the study, the mice were separated into six different groups and the tested substances were administered to the groups as shown in Table 1. Drugs were daily prepared in fresh saline, according to the dosage. For intranasal administration (i.n.), a volume of 20 μl was used, for intraperitoneal (i.p.)—200 μl.
as §1
The test is an arena with a diameter of 63 cm, illuminated by bright light (500 Lx). Recorded parameters: total distance traveled (in cm), time spent moving (at a speed of more than five cm/s), time spent immobile (at a speed of less than 0.2 cm/s), average and maximum velocity, the number of episodes of motor activity and freezing. The same set of parameters, as well as the latent period and the time spent are recorded for the central sector. Defecation, rears (setting the animal on its hind legs) are evaluated visually. The test is designed to assess the level of motor and exploratory activity.

[6] = tested on: BALB/C mice; assay: Elevated Plus Maze test, mice; conditions: for behavior in EPM: 1 mg/kg i.p.
Protocol: as §1
The test consists of two closed and two open arms located opposite each other (arm length 30 cm). The height of the sides of the closed arms is 15 cm. The entire installation is raised 70 cm above the floor. Open arms have a bright uniform illumination of 400 lux, closed −30-40 lux. The animal is placed in the center of the maze, with its head facing an open arm. Within five minutes, the Noldus EthoVision XT program (for behavior tracking) automatically records the following behavior parameters: total distance traveled (in cm), time spent moving (at a speed of more than five cm/s), time spent immobile (at a speed of less than 0.2 cm/s), average and maximum velocity, the number of episodes of mobility, and freezing. The same set of parameters, as well as the latent period and the time spent, are recorded for the central sector, the open and closed arms separately.

[7] = 10 mg/kg i.p., 30 minutes after injection

COCCCC/C(=N\OCCN)c1ccc(C(F)(F)F)cc1 [FA, Fluvoxamine]
time of active swimming ([1]; 20 mg/kg i.p.): 103.5 ± 15.1 s | time spent immobile ([1]; 20 mg/kg i.p.): 229 ± 19.8 s

CNC1(c2ccccc2Cl)CCCCC1=O (stereo not drawn) [ketamine, reference compound]
distance travelled ([2]; 20 mg/kg i.p.): tendency towards increased distance travelled | latency to the top of the NT ([2]; 20 mg/kg i.p.): did not alter | time spent at the top of the tank ([2]; 20 mg/kg i.p.): significant increase | time spent in the middle+top of the aquarium ([2]; 20 mg/kg i.p.): significant increase | velocity ([2]; 20 mg/kg i.p.): increased velocity | behavior in LDB test ([3]; 20 mg/kg i.p.): only trends towards significant differences | overall behavioral effect in Danio rerio ([4]; 20 mg/kg i.p.): anxiolytic-like responses

AGAS: tetrapeptide AGAS, best combinatorial tetrapeptide according to the score values
behavior in NT test ([2]; 1 mg/kg i.p.): didn't show any prominent effects | behavior in NT test ([2]; 5 mg/kg i.p.): didn't show any prominent effects | velocity ([2]; 10 mg/kg i.p.): greater velocity | time spent at the top of the tank ([2]; 20 mg/kg i.p.): decreased time spent at the top of the aquarium | velocity ([2]; 20 mg/kg i.p.): trend towards significant reduction of velocity | behavior in LDB test ([3]; 1 mg/kg i.p.): didn't show any prominent effects | behavior in LDB test ([3]; 5 mg/kg i.p.): didn't show any prominent effects | latency to enter the light compartment ([3]; 10 mg/kg i.p.): decreased latency to enter the light compartment | number of transitions between compartments of LDB ([3]; 10 mg/kg i.p.): increased number of transitions between compartments | behavior in LDB test ([3]; 20 mg/kg i.p.): no differences between experimental and control groups | overall behavioral effect in Danio rerio ([4]; 1 mg/kg i.p.): did not affect the behavior | overall behavioral effect in Danio rerio ([4]; 5 mg/kg i.p.): did not affect the behavior | overall behavioral effect in Danio rerio ([4]; 10 mg/kg i.p.): prominent anxiolytic-like activity | overall behavioral effect in Danio rerio ([4]; 20 mg/kg i.p.): anxiogenic-like or sedative effect | number of center entries [5, 7]: 19.3±3 | freezing time ([6]; 10 mg/kg i.p.): 38.7 ± 9.6 s | number of rears on the closed arms ([6]; 10 mg/kg i.p.): 10.2±2.9 | distance travelled [6, 7]: 973±78.7 cm | behavior in FST ([1]; 10 mg/kg i.p.): did not affect the behavior

AYFE: tetrapeptide chosen as a negative control [reference compound]
behavior in NT test ([2]; 1 mg/kg i.p.): did not alter the behavior | distance travelled (locomotor activity) ([2]; 10 mg/kg i.p.): attenuation of locomotor activity | behavior in LDB test ([3]; 1 mg/kg i.p.): did not alter the behavior | behavior in LDB test ([3]; 10 mg/kg i.p.): did not differ from control values | overall behavioral effect in Danio rerio ([4]; 1 mg/kg i.p.): did not show behavioral effects | overall behavioral effect in Danio rerio ([4]; 10 mg/kg i.p.): produced sedation | time spent in the center ([5]; 1 mg/kg i.p., 30 minutes after injection): 59.96±22.4 | behavior in EPM [6]: didn't affect the behavior | time spent active swimming ([1]; 1 mg/kg i.p.): increased | time spent immobile ([1]; 1 mg/kg i.p.): decreased

DSGH: combinatorial tetrapeptide with the best occurrence and the LOGO analysis
behavior in NT test ([2]; 0.5 mg/kg i.p.): did not produced any behavioral effects | behavior in NT test ([2]; 10 mg/kg i.p.): did not affect the behavioral parameters | number of transitions to light ([3]; 0.5 mg/kg i.p.): decreased number of transitions to light | time spent in the light compartment ([3]; 0.5 mg/kg i.p., trend p<0.1): decreased time spent in the light compartment | time spent in the light compartment ([3]; 1 mg/kg i.p.): trend towards increased time spent in the light compartment | latency to enter the light ([3]; 1 mg/kg i.p., trend p<0.10): decreased latency to enter the light | behavior in LDB test ([3]; 10 mg/kg i.p.): did not affect the behavioral parameters | overall behavioral effect in Danio rerio ([4]; 0.5 mg/kg i.p.): anxiogenic-like effect | overall behavioral effect in Danio rerio ([4]; 1 mg/kg i.p.): potent anxiolytic-like effect | overall behavioral effect in Danio rerio ([4]; 10 mg/kg i.p.): failed to produce any behavioral changes | behavioral parameters in Open Field test ([5]; 1 mg/kg i.p.): did not cause any changes of the behavioral parameters | behavior in EPM [6]: did not cause any changes of the behavioral parameters | behavioral parameters in FST ([1]; 1 mg/kg i.p.): did not cause any changes of the behavioral parameters
